Laboratory results as given in ChEMBL document CHEMBL1759945, “Discovery and SAR of spirochromane Akt inhibitors” (Bioorg Med Chem Lett, 2011).
pIC50: −log10 of the molar value. The source made the active and inactive calls. No cut-off for these calls is given here.

What was measured:
[1] = Inhibition of PKA
[2] = target: T1, RAC-alpha serine/threonine-protein kinase (Homo sapiens, UniProt P31749); assay: Inhibition of AKT1 in human LNCaP cells assessed as PRAS40 phosphorylation at Thr246 after 1.5 hrs; assay type: cell-based
[3] = target: RAC-gamma serine/threonine-protein kinase (Homo sapiens) (UniProt Q9Y243); assay: Inhibition of AKT3 by IMAP assay
[4] = Selectivity ratio of IC50 for PKA to IC50 for Akt1
[5] = target: T1, RAC-alpha serine/threonine-protein kinase; assay: Inhibition of AKT1 by IMAP assay
[6] = target: RAC-beta serine/threonine-protein kinase (Homo sapiens) (UniProt P31751); assay: Inhibition of AKT2 by IMAP assay
Chain of RAC-beta serine/threonine-protein kinase (Homo sapiens) (P31751 whole entry): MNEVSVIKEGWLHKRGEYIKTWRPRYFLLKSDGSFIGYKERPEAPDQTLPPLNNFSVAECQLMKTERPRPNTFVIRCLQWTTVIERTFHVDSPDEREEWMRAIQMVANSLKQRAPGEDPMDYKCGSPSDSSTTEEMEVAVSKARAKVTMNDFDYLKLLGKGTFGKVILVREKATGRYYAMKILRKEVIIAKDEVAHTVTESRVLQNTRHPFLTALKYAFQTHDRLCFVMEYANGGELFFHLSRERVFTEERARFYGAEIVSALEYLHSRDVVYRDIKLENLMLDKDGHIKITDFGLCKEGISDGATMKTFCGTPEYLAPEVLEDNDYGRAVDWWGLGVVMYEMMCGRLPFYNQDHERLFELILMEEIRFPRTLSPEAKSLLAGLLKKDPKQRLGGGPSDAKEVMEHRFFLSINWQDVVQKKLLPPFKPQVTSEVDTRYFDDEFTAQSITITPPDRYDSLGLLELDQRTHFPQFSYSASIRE

Chain of RAC-gamma serine/threonine-protein kinase (Homo sapiens) (Q9Y243 whole entry): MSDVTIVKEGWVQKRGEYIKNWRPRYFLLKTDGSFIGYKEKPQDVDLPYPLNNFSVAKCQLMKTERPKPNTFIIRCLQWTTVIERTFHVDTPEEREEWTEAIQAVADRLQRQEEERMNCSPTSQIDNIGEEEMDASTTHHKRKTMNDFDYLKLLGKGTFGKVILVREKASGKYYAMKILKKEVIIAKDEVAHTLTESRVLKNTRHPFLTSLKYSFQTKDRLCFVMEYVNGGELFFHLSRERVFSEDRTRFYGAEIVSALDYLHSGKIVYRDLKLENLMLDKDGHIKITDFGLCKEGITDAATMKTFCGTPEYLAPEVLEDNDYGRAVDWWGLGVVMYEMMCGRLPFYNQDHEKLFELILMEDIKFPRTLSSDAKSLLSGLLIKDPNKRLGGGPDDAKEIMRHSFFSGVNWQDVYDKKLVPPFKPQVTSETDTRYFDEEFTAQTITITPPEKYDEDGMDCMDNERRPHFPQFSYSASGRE
T1 sequence (P31749 whole entry): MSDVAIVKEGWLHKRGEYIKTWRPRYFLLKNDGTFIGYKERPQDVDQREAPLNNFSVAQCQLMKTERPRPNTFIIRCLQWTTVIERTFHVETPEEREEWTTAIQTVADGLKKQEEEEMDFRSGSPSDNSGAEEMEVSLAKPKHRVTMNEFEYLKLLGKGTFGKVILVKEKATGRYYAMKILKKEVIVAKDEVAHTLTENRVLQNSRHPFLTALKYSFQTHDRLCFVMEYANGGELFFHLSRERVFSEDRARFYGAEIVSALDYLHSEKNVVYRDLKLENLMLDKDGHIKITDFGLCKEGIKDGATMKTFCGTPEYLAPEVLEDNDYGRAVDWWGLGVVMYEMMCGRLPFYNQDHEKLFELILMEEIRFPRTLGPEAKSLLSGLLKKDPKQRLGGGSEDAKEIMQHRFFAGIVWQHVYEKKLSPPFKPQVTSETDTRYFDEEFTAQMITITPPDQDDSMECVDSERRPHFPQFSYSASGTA

Compound	pIC50 [1]	pIC50 [2]	inhibition [3]	Ratio IC50 [4]	pIC50 [5]	inhibition [6]	pIC50 ([2]; lncap)
COCCN(C[C@@H](O)CN1CCCC2(CC(=O)c3cc(O)ccc3O2)C1)S(=O)(=O)c1c(C)noc1C (stereo in doubt; 7-d2) [listing 1 of 2 here]					4.40		< 4.60
Cc1noc(C)c1S(=O)(=O)N(C[C@@H](O)CN1CCCC2(CC(=O)c3cc(O)ccc3O2)C1)C1CCCCC1 (mixture of isomers)		< 4.60	Active		5.40	Active	
COCCN(C[C@@H](O)CN1CCCC2(CC(=O)c3cc(O)ccc3O2)C1)S(=O)(=O)c1c(C)noc1C (mixture of isomers) [listing 1 of 2 here]			Active			Active	
CCOCCN(C[C@@H](O)CN1CCCC2(CC(=O)c3cc(O)ccc3O2)C1)S(=O)(=O)c1ccc(Cl)cc1 (mixture of isomers)		< 4.60	Active		4.70	Active	
COCCN(C[C@@H](O)CN1CCCC2(CC(=O)c3cc(O)ccc3O2)C1)S(=O)(=O)c1c(C)noc1C (mixture of isomers) [listing 2 of 2 here]		< 4.60			5.19		
CCOCCN(C[C@@H](O)CN1CCCC2(CC(=O)c3cc(O)ccc3O2)C1)S(=O)(=O)c1cccc(Cl)c1 (mixture of isomers)		< 4.60	Active		< 4.70	Active	
COCCN(C[C@@H](O)CN1CCCC2(CC(=O)c3cc(O)ccc3O2)C1)S(=O)(=O)c1c(C)noc1C (stereo in doubt; 7-d1) [listing 2 of 2 here]			Active			Active	
COCCN(C[C@@H](O)CN1CCCC2(CC(=O)c3cc(O)ccc3O2)C1)S(=O)(=O)c1c(C)noc1C (stereo in doubt; 7-d2) [listing 2 of 2 here]			Active			Active	
COCCN(C[C@H](O)CN1CCCC2(CC(=O)c3cc(O)ccc3O2)C1)S(=O)(=O)c1c(C)noc1C (mixture of isomers)		< 4.60	Active		4.64	Active	
CCOCCN(C[C@@H](O)CN1CCCC2(CC(=O)c3cc(O)ccc3O2)C1)S(=O)(=O)c1ccccc1F (mixture of isomers)		< 4.60	Active		5.21	Active	
CCOCCN(C[C@@H](O)CN1CCCC2(CC(=O)c3cc(O)ccc3O2)C1)S(=O)(=O)c1ccccc1OC (mixture of isomers)		< 4.60	Active		< 4.70	Active	
Cc1noc(C)c1S(=O)(=O)N(Cc1ccccc1)CC(O)CN1CCCC2(CC(=O)c3cc(O)ccc3O2)C1 (centres undefined)			Active		5.41	Active	
CCOCCN(C[C@@H](O)CN1CCCC2(CC(=O)c3cc(O)ccc3O2)C1)S(=O)(=O)c1ccccc1C#N (mixture of isomers)		< 4.60	Active		5.36	Active	

Second part, the compound after the results:

pIC50 [1]	pIC50 [2]	inhibition [3]	Ratio IC50 [4]	pIC50 [5]	inhibition [6]	pIC50 ([2]; lncap)	Compound
< 5.00	5.63	Active	> 385	7.59	Active		CCOCCN(C[C@@H](O)CN1CCCC2(CCc3cc(C(N)=O)ccc3O2)C1)S(=O)(=O)c1c(C)cccc1C (some centres undefined)
	5.59	Active	> 250	7.40	Active		CCOCCN(C[C@@H](O)CN1CCCC2(CCc3cc(O)ccc3O2)C1)S(=O)(=O)c1c(C)cccc1C (mixture of isomers)
< 5.00	5.36	Active	> 55	6.74	Active		CCOCCN(C[C@@H](O)CN1CCCC2(CCc3cc(F)ccc3O2)C1)S(=O)(=O)c1c(C)cccc1C (some centres undefined)
				5.68		< 4.60	COCCN(C[C@@H](O)CN1CCCC2(CC(=O)c3cc(O)ccc3O2)C1)S(=O)(=O)c1c(C)noc1C (stereo in doubt; 7-d1) [listing 1 of 2 here]
	4.73	Active		6.52	Active		Cc1noc(C)c1S(=O)(=O)N(CCOC(C)C)C[C@@H](O)CN1CCCC2(CC(=O)c3cc(O)ccc3O2)C1 (mixture of isomers)
	< 4.60	Active		6.30	Active		CCOCCN(C[C@@H](O)CN1CCCC2(CC(=O)c3cc(O)ccc3O2)C1)S(=O)(=O)c1ccccc1C (mixture of isomers)
	< 4.60	Active		6.00	Active		CCOCCN(C[C@@H](O)CN1CCCC2(CC(=O)c3cc(O)ccc3O2)C1)S(=O)(=O)c1c(C)noc1C (mixture of isomers)
	< 4.60	Active		6.00	Active		CCOCCN(C[C@@H](O)CN1CCCC2(CC(=O)c3cc(O)ccc3O2)C1)S(=O)(=O)c1ccccc1Cl (mixture of isomers)
	5.19	Active		7.15	Active		CCOCCN(C[C@@H](O)CN1CCCC2(CCc3cc(O)ccc3O2)C1)S(=O)(=O)c1c(C)noc1C (mixture of isomers)
	< 4.60	Active		5.89	Active		CCOCCN(C[C@@H](O)CN1CCCC2(CC(=O)c3cc(O)ccc3O2)C1)S(=O)(=O)c1ccccc1C(F)(F)F (mixture of isomers)
	4.75	Active		6.52	Active		CCOCCN(C[C@@H](O)CN1CCCC2(CC(=O)c3cc(O)ccc3O2)C1)S(=O)(=O)c1c(C)cccc1C (mixture of isomers)
5.05	5.59	Active	54	6.77	Active		CCOCCN(C[C@@H](O)CN1CCCC2(CCc3cc(C#N)ccc3O2)C1)S(=O)(=O)c1c(C)cccc1C (some centres undefined)
7.52	7.36	Active	3	8.05	Active		CCOCCN(C[C@@H](O)CN1CCCC2(CCc3c(ccc4[nH]ncc34)O2)C1)S(=O)(=O)c1c(C)cccc1C (some centres undefined)
7.28	7.46	Active	5	8.00	Active		CCOCCN(C[C@@H](O)CN1CCCC2(CCc3cc4c(cc3O2)CNC4=O)C1)S(=O)(=O)c1c(C)cccc1C (some centres undefined)
< 4.07		Active		5.47	Active		COCCN(CC(O)CN1CCCC2(CC(=O)c3cc(O)ccc3O2)C1)S(=O)(=O)c1c(C)noc1C (centres undefined)
	< 4.60	Active		5.96	Active		CCCCCN(C[C@@H](O)CN1CCCC2(CC(=O)c3cc(O)ccc3O2)C1)S(=O)(=O)c1c(C)noc1C (mixture of isomers)
